# Data taken from article PMC7377239, “Cardiovascular Effects of Polychlorinated Biphenyls and Their Major Metabolites” (Environmental Health Perspectives, 2020).
# Like-named read-outs stand apart in the source and are kept apart here.
# Legend:
# [1] = tested on: iCell cardiomyocytes (human iPSC-derived cardiomyocytes); assay: High-content imaging of cytotoxicity and mitochondrial integrity in iPSC-CMs; type: cell-based; conditions: Homo sapiens, Cardiomyocyte, cardiomyocytes (cm)
# Experimental: Details on cardiomyocyte cell culture are described in detail elsewhere ([Grimm et al. 2015b]; [Sirenko et al. 2013a]). Briefly, tissue-culture treated 384 well plates were gelatinized with 25μL per well of 0.1% (w/v) gelatin in water for 2 h at 37°C and 5% CO2 . Individual vials of cells were thawed for 4 min in a water bath maintained at 37°C. Thawed cells were resuspended in 10ml plating medium containing 1:500 (vol/vol) penicillin/streptomycin solution at room temperature (RT). Live cell counts for each cell suspension were determined by trypan blue staining and cells were further diluted to provide final cell densities of 2×10^5 viable cells/ml. Thus, 5,000 cells suspended in 25μL media were transferred per well after the gelatin solution had been discarded. Cell culture plates were rested for 30 min at RT before they were incubated for 48 h at 37°C and 5% CO2 . Then, a media exchange with 30μL of fresh maintenance medium containing 1:500 (vol/vol) penicillin/streptomycin solution was performed, and cell media were subsequently changed every 48 h for 12 d. On the experiment day, the medium was completely exchanged with either 25μL (for Ca^2+ flux assay) or 40μL (for imaging) of fresh medium.
# Cytotoxicity and effects on mitochondrial integrity of various PCBs and PCB metabolites in induced pluripotent stem cell-CMs (iPSC-CMs) were assessed using high-content cellular imaging in ImageXpress® Micro Confocal (Molecular Devices) as detailed in ([Grimm et al. 2015b]). Cells in 40μL maintenance media were treated with 10μL of 5× chemical solutions to provide test chemicals at final assay concentrations ranging from 0.01 to 100μM . […] Next, sample wells were treated with 50μL equilibrated 2× concentrated staining solution (maintenance medium containing Hoechst 33342, 4μg/mL and MitoTracker™ Orange, 0.4μM ). Microplates were then incubated for 15 min at 37°C and 5% CO2 before cells were washed twice with 30μL maintenance medium. All media were aspirated and discarded, and cells were fixed with […] of a 3.7% formaldehyde solution for 15 min at 37°C and 5% […] . Fixed cells were washed 3× with 25μL PBS before image acquisition using the DAPI (Hoechst 33342) and Cy3 (MitoTracker™ Orange) filters at 10× magnification on the ImageXpress® Micro Confocal high-content confocal microscope (Molecular Devices). The multiwavelength cell scoring applications module in MetaXpress® was used to analyze acquired images.
# (§1) Phenotypic responses were quantitatively assessed using concentration–response modeling as detailed elsewhere ([Sirenko et al. 2017]). Briefly, phenotypic readouts were normalized to vehicle controls and fit to a four-parameter logistic model in R studio software (version 3.1.1; R Development Core Team). Following EPA guidance on dose–response modeling, a cutoff of one standard deviation across means of vehicle control (i.e., 0.5% vol/vol DMSO in cell culture media) wells was applied to determine the point-of-departure (POD) values ([U.S. EPA 2012]). In the absence of a concentration–response, the highest tested concentration (i.e., 100μM ) was assigned as “no observable adverse effect level.” The concentration–response assessment R script, as well as templates for vehicle and concentration–response data, are available as a supplement to Sirenko et al. ([2017]). The ability of physicochemical properties to predict differences in PODs were evaluated by multiregression and mixed-effects modeling using R.
# HUVECs = assay: High-content imaging cytotoxicity in HUVECs, 24 h; type: cell-based, human; conditions: Homo sapiens, HUVEC, 24 h, HUVEC, 24 hr
# Experimental: Similar to the cultivation of iCell®-endothelial cells, HUVEC maintenance and experimentation are detailed elsewhere ([Iwata et al. 2017]). Briefly, HUVECs were thawed, seeded, and grown in T75 tissue culture flasks in Medium 199 with EGM™-2 BulletKits™. HUVECs were incubated at regular cell culture conditions, 37°C and 5% CO2 , and passaged every 2–3 d using TrypLE™ Express. To ensure adequate endothelial function, experiments were performed with cells between passages 1 and 5.
# Cytotoxicity was assessed in parallel experiments. For iCell®-endothelial cells, 384-well plates were coated with a 30μg/mL fibronectin solution ( 10μL/well ) and incubated for 2 h at RT. iCell®-endothelial cells were dissociated with TrypLE™ Express and prepared into a solution to achieve 750 cells per well and 50μL of total volume. The fibronectin solution was removed from the 384-well plate, and cells were plated. For HUVECs, similar dissociation and the same cell density were used for plating with the exclusion of the fibronectin solution. Cells were incubated at 37°C and 5% CO2 until a monolayer was formed, typically 3–5 d. 2×PCB plates were created with the requisite maintenance medium. Before treatment, the medium in the wells was exchanged to 25μL/well of fresh maintenance medium. 2×PCB chemical solutions ( […] ) were added. After 24 h incubation at 37°C and 5% CO2 , cells were stained with Hoechst 33342, MitoTracker™ Orange, and calcein AM for 20 min before replacing the staining media with FluoroBright DMEM. Cell culture plates were imaged using the ImageXpress® Micro Confocal high-content imaging system (Molecular Devices). Images were acquired at 10× magnification with DAPI, TRITC, or FITC filter (Hoechst 33342, MitoTracker™, or calcein AM, respectively). The multiwavelength cell scoring applications module in MetaXpress™ (Molecular Devices) was used to analyze the images.
# as §1
compound,measurement,setting,value
"Oc1ccc(O)c(-c2ccc(Cl)cc2)c1 [2',5'-diOH-PCB 3, 4-Chloro-2′,5′-dihydroxybiphenyl]",minimal effective concentration,"[1]; 1.5 h, cam, 90 min, read-out: POD cm.cam.90min",32.4 µM
same,minimal effective concentration,"[1]; 1.5 h, mii, 90 min, read-out: POD cm.mii.90min",7.9 µM
same,minimal effective concentration,"[1]; 1.5 h, mito, 90 min, read-out: POD cm.mito.90min",12.7 µM
same,minimal effective concentration,"[1]; 1.5 h, tc, 90 min, read-out: POD cm.tc.90min",33.4 µM
same,minimal effective concentration,"[1]; 24 h, cam, 24 hrs, read-out: POD cm.cam.24hrs",1.84 µM
same,minimal effective concentration,"[1]; 24 h, mii, 24 hrs, read-out: POD cm.mii.24hrs",2.28 µM
same,minimal effective concentration,"[1]; 24 h, mito, 24 hrs, read-out: POD cm.mito.24hrs",0.97 µM
same,minimal effective concentration,"[1]; 24 h, tc, 24 hrs, read-out: POD cm.tc.24hrs",1.88 µM
same,minimal effective concentration,"HUVECs; cyto, read-out: POD huvec.cyto.24hr",0.12 µM
same,minimal effective concentration,"HUVECs; mito, read-out: POD huvec.mito.24hr",0.13 µM
same,minimal effective concentration,"HUVECs; mitoint, read-out: POD huvec.mitoint.24hr",3.51 µM
same,minimal effective concentration,"HUVECs; nma, read-out: POD huvec.nma.24hr",8.87 µM
same,minimal effective concentration,"HUVECs; tc, read-out: POD huvec.tc.24hr",0.12 µM
